Test results from ChEMBL document CHEMBL1201862, “PubChem BioAssay data set” (2004).
Counter-ions that a name gives are not always drawn. The source made the active and inactive calls.

Experiments:
Vero [1] = experiment: cells; type: functional, cell-based; conditions: Chlorocebus sabaeus
Cytochrome P450 3A4 = Cytochrome P450 3A4 (Homo sapiens, UniProt P08684);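 note: CYP3A4 tested as one member of a cytochrome P450 panel screen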
Vero [2] = experiment: cells; type: functional; conditions: Chlorocebus sabaeus
[3] = viability of uninfected HEp-2 cells – cell-based, HTS, cytotoxicity control for RSV inhibitor project, dose response (AID 2410); type: functional; conditions: human respiratory syncytial virus
[4] = molecular target: Voltage-gated inwardly rectifying potassium channel KCNH2 (Homo sapiens, UniProt Q12809); conditions: Potency;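 note: confirmatory quantitative high-throughput screen measuring inhibition of hERG channel activity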
Beta-galactosidase = Beta-galactosidase (Escherichia coli, UniProt Q8VNN2); experiment: PubChem AID 485352; type: functional
[5] = molecular target: T1, Type-1 angiotensin II receptor (Homo sapiens, UniProt P30556); experiment: antagonism of angiotensin II type 1 receptor – cell-based, uHTS hits, selectivity assay for APJ receptor antagonist project, dose response (AID 463214); type: functional;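 note: antagonist potency against angiotensin II stimulated AT1 response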
T1 sequence (P30556 whole entry): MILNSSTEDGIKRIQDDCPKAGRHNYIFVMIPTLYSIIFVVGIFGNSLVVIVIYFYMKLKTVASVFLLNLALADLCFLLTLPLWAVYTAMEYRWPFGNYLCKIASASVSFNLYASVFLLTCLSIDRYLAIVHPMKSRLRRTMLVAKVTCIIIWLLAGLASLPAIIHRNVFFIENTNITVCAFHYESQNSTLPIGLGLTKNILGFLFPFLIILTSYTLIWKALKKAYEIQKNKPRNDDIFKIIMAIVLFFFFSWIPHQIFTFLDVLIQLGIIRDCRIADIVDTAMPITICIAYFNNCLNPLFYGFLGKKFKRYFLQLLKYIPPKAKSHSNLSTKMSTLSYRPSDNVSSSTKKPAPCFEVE

Phospholipase A2 = Phospholipase A2 (Homo sapiens, UniProt P04054); type: functional;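 note: confirmatory dose-response counterscreen on phospholipase A2, testing hits that came from an ultra-high-throughput screen for ATG4B inhibitors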
Vero [6] = experiment: viability of Vero cells under compound – cytotoxicity control for flavivirus capping enzyme inhibitors (AID 588742); type: functional; conditions: Chlorocebus sabaeus
Cysteine protease ATG4B = molecular target: T2, Cysteine protease ATG4B (Homo sapiens, UniProt Q9Y4P1); type: functional;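 note: Fluorescence-based dose-response confirmation assay measuring inhibition of ATG4B activity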
T2 sequence (Q9Y4P1 whole entry): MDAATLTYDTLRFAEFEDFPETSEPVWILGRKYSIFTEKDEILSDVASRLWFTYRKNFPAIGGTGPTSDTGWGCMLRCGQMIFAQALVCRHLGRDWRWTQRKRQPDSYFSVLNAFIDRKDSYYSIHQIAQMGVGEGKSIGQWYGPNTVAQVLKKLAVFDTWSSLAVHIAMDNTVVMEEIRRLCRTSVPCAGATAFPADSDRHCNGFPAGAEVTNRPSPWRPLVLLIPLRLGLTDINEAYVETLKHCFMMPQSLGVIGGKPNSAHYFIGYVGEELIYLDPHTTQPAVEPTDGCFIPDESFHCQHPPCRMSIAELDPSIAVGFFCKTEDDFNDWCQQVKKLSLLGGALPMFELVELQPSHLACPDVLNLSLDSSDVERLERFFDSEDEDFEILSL

Genome polyprotein = Genome polyprotein (dengue virus type 2, UniProt P29990); experiment: flavivirus cap methylation enzyme inhibition – biochemical, confirmation dose response, primary screen (AID 588689); type: functional
[7] = molecular target: T3, Replicative DNA helicase DnaB (Mycobacterium tuberculosis, UniProt P9WMR3); experiment: DnaB intein splicing inhibitors, dose response, biochemical, cell-free fluorescence (AID 449749); type: functional
T3 sequence (P9WMR3 whole entry): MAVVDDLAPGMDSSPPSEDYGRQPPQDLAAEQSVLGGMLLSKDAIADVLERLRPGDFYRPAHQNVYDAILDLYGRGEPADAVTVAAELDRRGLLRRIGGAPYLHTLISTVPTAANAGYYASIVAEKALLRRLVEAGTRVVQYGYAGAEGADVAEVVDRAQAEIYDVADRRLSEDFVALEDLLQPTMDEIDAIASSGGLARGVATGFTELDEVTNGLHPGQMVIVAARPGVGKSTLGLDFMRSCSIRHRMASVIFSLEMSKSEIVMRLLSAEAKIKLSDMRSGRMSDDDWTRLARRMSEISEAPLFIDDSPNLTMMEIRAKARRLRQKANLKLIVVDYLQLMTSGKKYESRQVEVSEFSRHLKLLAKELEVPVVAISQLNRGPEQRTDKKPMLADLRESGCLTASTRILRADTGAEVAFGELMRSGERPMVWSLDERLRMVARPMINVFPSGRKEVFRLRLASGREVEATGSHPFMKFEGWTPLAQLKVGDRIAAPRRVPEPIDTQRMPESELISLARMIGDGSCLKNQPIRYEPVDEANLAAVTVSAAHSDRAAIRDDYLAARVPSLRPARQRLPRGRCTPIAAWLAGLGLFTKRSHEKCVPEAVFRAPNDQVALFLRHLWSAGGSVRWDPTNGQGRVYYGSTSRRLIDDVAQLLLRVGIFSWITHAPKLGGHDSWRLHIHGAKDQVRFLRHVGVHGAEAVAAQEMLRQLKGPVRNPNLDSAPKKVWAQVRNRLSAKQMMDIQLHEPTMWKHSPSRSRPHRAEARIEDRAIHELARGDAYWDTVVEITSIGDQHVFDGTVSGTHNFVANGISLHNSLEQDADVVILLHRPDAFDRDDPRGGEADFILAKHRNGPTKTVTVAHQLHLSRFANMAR

[8] = luciferase reporter signal suppression in cells – H4 neuroglioma cells, luminescence, dose response (AID 1990); type: functional, cell-based
[9] = alpha-synuclein stem-loop luciferase translation blockers – H4 neuroglioma cells, luminescence, confirmation (AID 1988); type: functional, cell-based
[10] = Luminescence Cell-Based Dose Response HTS to Identify Inhibitors of 5'UTR Stem-Loop Driven Prion Protein mRNA Translation in H4 Neuroglioblastoma Cells. [Related pubchem assays: 1827 (Project Summary), 1813 (Primary HTS)]; type: functional
Protein RecA = molecular target: T4, Protein RecA (Mycobacterium tuberculosis, UniProt P9WHJ3); experiment: Fluorescence Cell-Free Homogeneous Dose Retest to Identify Inhibitors of RecA-Intein Splicing Activity. [Related pubchem assays (depositor defined):AID2097, AID2223, AID489010, AID492950]; type: functional
T4 sequence (P9WHJ3 whole entry): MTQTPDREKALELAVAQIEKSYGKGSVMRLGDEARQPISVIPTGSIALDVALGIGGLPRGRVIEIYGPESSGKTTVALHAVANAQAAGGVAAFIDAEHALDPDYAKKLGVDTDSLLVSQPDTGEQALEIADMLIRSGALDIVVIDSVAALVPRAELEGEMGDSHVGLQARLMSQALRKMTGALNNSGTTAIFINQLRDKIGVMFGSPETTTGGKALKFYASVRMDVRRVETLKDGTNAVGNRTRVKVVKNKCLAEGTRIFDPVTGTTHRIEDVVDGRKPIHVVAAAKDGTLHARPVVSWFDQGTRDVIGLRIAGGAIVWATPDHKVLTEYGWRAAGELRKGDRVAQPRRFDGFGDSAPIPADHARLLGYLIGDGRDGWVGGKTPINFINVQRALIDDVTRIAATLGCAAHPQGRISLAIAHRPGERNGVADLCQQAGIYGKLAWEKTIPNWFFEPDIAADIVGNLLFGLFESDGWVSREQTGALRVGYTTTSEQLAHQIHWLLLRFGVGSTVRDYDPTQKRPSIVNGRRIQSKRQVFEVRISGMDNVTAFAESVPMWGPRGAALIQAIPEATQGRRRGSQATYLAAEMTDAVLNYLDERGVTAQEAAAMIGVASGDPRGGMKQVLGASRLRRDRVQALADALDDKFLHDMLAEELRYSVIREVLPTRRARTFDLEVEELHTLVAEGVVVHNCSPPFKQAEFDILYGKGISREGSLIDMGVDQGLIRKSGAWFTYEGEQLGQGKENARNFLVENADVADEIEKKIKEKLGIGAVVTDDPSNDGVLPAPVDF

[11] = molecular target: T5, Microphthalmia-associated transcription factor (Homo sapiens, UniProt O75030); experiment: reducers of TRPM1 reporter luminescence, concentration series – cell-based, SK-MEL-5, cherry-picked, set 3, MITF inhibitor project, dose response (AID 493073); type: functional;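 note: SK-MEL-5 melanoma cells with luciferase driven by the MITF target TRPM1 promoter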
T5 sequence (O75030 whole entry): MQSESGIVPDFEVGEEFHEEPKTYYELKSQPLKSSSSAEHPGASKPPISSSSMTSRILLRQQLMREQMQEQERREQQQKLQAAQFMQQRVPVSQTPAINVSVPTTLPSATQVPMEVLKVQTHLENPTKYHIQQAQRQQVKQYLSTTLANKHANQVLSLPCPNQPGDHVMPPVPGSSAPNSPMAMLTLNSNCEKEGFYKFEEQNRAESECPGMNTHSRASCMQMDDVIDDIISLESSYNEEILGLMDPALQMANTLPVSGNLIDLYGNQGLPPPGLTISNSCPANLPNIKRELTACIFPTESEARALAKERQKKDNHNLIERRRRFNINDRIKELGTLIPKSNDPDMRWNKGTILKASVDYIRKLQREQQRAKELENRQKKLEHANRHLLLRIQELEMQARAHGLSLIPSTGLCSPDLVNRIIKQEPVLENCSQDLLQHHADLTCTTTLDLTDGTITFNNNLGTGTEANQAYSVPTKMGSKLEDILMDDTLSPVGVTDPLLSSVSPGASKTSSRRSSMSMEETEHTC

[12] = molecular target: T6, Ubiquitin-conjugating enzyme E2 N (Homo sapiens, UniProt P61088); type: functional;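 note: Dose-response confirmation in a TR-FRET assay detecting UBC13-driven polyubiquitin chain formation, inhibition measured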
T6 sequence (P61088 whole entry): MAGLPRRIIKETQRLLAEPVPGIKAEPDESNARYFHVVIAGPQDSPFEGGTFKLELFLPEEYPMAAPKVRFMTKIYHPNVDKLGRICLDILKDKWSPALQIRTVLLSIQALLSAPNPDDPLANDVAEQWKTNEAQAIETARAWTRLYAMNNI

[13] = molecular target: T7, Endoribonuclease toxin MazF (Escherichia coli K-12, UniProt P0AE70); experiment: substrate-only fluorescence increase artefacts – biochemical, single-stranded RNase substrate, counter-screen for MazEF activator project, dose response (AID 588502); type: functional
T7 sequence (P0AE70 whole entry): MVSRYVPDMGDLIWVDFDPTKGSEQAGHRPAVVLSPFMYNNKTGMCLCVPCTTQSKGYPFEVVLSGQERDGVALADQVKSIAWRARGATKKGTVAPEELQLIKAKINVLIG

[14] = molecular target: T7, Endoribonuclease toxin MazF; experiment: activation of MazEF endoribonuclease cleavage – biochemical, fluorescence, single-stranded RNA substrate, uHTS hits, dose response (AID 588481); type: functional
Streptococcus = experiment: GAS UMAA2166 growth inhibition – luminescence, BacTiterGlo, counter-screen for streptokinase expression inhibitor project, dose response (AID 1915); type: functional, organism-based;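 note: potency for reduction of bacterial viability or growth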
[15] = test system: Streptococcus sp. 'group A'; experiment: Streptococcus pyogenes SK(-)GAS viability under kanamycin – luminescence, BacTiterGlo, confirmation, counter-screen for streptokinase expression inhibitor project, dose response (AID 1900); type: functional, organism-based

Chain of Voltage-gated inwardly rectifying potassium channel KCNH2 (Q12809 whole entry): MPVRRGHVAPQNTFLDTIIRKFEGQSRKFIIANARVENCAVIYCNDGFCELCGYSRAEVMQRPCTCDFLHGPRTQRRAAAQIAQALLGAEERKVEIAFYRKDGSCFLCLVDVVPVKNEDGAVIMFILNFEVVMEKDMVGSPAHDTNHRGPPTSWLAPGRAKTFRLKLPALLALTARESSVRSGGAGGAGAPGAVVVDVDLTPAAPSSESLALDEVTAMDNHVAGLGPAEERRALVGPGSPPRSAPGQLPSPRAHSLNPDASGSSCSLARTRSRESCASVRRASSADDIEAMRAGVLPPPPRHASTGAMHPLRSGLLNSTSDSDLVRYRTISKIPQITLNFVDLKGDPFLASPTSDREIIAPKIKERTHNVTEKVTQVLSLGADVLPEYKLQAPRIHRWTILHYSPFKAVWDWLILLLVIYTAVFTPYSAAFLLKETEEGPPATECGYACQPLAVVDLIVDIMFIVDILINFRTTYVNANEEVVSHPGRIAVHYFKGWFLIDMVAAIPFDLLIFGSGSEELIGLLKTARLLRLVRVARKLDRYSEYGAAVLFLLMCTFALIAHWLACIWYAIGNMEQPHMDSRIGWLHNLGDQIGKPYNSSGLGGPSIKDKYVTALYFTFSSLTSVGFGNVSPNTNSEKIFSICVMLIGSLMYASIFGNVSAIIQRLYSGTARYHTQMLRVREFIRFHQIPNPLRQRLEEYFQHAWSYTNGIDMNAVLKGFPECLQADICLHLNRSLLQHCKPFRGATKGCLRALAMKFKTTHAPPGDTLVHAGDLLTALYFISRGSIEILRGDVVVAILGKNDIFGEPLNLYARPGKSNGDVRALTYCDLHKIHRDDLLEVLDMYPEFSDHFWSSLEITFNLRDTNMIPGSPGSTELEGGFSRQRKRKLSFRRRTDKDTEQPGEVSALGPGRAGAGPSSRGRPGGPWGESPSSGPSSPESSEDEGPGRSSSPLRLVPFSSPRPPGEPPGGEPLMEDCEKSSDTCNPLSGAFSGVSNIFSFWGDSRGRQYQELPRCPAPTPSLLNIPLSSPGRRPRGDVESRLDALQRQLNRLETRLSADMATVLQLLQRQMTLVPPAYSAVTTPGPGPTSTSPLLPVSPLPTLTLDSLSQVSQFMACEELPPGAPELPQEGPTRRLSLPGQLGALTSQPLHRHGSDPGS
Chain of Beta-galactosidase (Q8VNN2 whole entry): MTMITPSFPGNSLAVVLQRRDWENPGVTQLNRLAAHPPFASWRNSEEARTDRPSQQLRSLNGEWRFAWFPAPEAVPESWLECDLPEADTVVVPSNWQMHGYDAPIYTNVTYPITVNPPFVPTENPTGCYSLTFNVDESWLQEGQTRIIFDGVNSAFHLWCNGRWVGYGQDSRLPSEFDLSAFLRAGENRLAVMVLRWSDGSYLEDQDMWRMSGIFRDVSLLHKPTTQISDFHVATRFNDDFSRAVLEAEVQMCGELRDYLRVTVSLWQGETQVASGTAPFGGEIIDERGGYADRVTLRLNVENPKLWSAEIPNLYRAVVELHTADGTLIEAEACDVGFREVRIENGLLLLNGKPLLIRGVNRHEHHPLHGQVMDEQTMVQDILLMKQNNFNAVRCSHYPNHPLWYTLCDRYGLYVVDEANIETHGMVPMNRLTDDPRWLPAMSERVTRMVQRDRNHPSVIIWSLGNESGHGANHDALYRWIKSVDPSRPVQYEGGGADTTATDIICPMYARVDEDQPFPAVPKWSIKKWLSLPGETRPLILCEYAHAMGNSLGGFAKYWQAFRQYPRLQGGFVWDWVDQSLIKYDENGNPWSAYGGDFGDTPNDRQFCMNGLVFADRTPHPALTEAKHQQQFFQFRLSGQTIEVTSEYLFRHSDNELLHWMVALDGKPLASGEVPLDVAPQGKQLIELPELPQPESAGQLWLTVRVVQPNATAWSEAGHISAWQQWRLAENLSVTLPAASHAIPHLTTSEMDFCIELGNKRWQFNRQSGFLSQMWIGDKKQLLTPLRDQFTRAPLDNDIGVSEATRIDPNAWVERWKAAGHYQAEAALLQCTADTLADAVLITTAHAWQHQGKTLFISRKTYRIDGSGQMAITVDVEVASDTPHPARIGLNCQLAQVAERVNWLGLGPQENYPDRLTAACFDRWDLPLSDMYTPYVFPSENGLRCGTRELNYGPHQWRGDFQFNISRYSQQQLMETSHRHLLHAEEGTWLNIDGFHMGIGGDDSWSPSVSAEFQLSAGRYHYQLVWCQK
Chain of Cytochrome P450 3A4 (P08684 whole entry): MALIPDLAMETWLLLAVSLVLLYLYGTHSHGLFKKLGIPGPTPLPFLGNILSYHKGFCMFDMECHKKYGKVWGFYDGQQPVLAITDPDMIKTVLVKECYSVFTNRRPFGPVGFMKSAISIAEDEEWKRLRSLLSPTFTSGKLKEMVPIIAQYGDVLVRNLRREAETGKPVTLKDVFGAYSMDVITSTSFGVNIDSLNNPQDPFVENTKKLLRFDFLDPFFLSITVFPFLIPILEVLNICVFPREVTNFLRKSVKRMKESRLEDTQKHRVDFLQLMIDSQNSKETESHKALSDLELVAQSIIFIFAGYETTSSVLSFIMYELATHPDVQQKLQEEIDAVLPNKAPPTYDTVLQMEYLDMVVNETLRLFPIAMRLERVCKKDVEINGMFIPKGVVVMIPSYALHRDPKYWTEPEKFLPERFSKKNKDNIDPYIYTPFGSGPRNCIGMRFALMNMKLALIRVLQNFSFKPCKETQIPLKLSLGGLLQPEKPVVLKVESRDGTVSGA
Chain of Phospholipase A2 (P04054 whole entry): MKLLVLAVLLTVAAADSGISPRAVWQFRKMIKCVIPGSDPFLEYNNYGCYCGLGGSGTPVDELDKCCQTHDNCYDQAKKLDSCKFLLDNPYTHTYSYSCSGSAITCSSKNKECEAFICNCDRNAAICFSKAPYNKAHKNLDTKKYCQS
Chain of Genome polyprotein (P29990 2492-3391 limits assumed): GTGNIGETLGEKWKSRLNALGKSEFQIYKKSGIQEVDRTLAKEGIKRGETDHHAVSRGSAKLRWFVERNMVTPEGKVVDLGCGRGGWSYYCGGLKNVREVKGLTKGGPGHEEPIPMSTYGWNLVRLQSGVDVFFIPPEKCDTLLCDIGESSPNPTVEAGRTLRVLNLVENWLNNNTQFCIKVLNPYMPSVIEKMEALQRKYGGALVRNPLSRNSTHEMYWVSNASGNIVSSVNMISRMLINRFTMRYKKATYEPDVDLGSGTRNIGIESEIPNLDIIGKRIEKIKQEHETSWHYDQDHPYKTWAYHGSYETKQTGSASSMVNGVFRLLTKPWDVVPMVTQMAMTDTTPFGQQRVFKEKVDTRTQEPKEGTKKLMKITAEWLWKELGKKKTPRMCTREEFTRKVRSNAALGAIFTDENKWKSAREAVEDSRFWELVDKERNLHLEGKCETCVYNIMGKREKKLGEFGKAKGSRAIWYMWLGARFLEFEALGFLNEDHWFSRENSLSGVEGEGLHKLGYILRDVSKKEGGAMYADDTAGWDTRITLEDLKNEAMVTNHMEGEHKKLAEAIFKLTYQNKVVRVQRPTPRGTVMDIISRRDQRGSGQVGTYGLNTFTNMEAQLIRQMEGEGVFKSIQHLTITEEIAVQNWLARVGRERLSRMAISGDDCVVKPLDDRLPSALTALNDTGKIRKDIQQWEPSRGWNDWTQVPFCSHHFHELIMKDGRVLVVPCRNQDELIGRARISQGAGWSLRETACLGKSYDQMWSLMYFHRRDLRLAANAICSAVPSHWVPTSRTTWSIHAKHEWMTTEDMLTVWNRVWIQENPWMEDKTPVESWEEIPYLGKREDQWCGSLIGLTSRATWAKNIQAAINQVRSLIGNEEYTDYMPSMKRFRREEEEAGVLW

Q: What does the source list for `CCOC(=O)c1c(-c2cccc(C)c2)csc1NC(=O)c1c(-c2ccccc2)noc1C`?
A: IC50 (Vero [1]): 1.43 µM (active); AC50 (Cytochrome P450 3A4): 5.62 µM (inconclusive); CC50 (Vero [2]): > 25 µM (active); IC50 (cells): 9.89 µM (active); CC50 [3]: 5.17 µM (active)

Q: Which AC50 [4] does the source give for `CCOc1ccc2nc(N)sc2c1` here?
A: 28.2 µM (inconclusive)

Q: Which EC50 (Beta-galactosidase) does the source give for `COc1ccc(/C=C/C(=O)NC(=S)NNC(=O)c2c(-c3ccccc3)noc2C)cc1` here?
A: > 40 µM (inactive)

Q: What about the IC50 [5] of the same molecule?
A: 35.5 µM (not active)

Q: With `Cc1ccccc1S(=O)(=O)N1[C@@H](c2ccc(Br)cc2)C(C(=O)O)=CC[C@H]1c1ccc(Cl)cc1` as the molecule, how does the IC50 (Phospholipase A2) read?
A: 6.72 µM (active)

Q: And the CC50 (Vero [6])?
A: > 40 µM (active)

Q: What about the IC50 (Cysteine protease ATG4B) of the same molecule?
A: 7.71 µM (active)

Q: What about the IC50 (Genome polyprotein) of the same molecule?
A: 41.4 µM (active)

Q: Which results are given for `CN(C)c1ccc(C=C2C(=O)NC(=S)NC2=O)cc1`?
A: IC50 (Vero [1]): > 25 µM (active); CC50 (Vero [2]): 22.2 µM (active); CC50 (Vero [6]): 31.4 µM (active)

Q: Which AC50 [7] does the source give for `O=C1c2ccccc2C(=O)c2c1ncn2-c1ccccc1` here?
A: 57.3 µM (active)

Q: And the EC50 [8]?
A: 13.1 µM (active)

Q: And the EC50 [9]?
A: 9.51 µM (active)

Q: And the EC50 [10]?
A: 15.6 µM (active)

Q: What about the EC50 (Protein RecA) of the same molecule?
A: 229 µM (active)

Q: What about the AC50 [11] of the same molecule?
A: 7.33 µM (active)

Q: With `N=c1n(CC(=O)c2ccc(Br)cc2)c2ccccc2n1Cc1ccccc1` as the molecule, how does the IC50 [12] read?
A: > 20 µM (inactive)

Q: What about the AC50 [11] of the same molecule?
A: 6.41 µM (active)

Q: What does the source list for `CC1(C)Oc2ccc3ccc(=O)oc3c2C(/C=N/NC(N)=O)=C1O`?
A: EC50 (Beta-galactosidase): > 40 µM (inactive); IC50 [5]: > 40 µM (not active)

Q: Which AC50 [4] does the source give for `c1ccc2c(c1)-c1cccc3cccc-2c13` [FLUORANTHENE] here?
A: 12.6 µM (inconclusive)

Q: With `CN1CCC(=C2c3ccccc3CC(=O)c3sccc32)CC1` [KETOTIFEN FUMARATE] as the molecule, how does the AC50 [4] read?
A: 22.4 µM (inconclusive)

Q: For `COC(=O)CSc1nc2cc(OC)ccc2cc1C#N`, which EC50 [13] is on record?
A: 48.4 µM (inactive)

Q: And the EC50 [14]?
A: > 99 µM (inactive)

Q: What does the source list for `O=C(CN1c2ccccc2Sc2ccccc21)NNC(=S)Nc1ccc(Cl)cc1`?
A: EC50 (Beta-galactosidase): > 40 µM (inactive); EC50 (Streptococcus): 3.6 µM (active); IC50 [5]: > 40 µM (not active); EC50 [15]: 3.35 µM (active)

Q: Which EC50 [13] does the source give for `CNc1ccc(/C=C(\C#N)C(=O)Nc2ccccn2)cc1[N+](=O)[O-]` here?
A: 39.2 µM (inactive)

Q: And the EC50 [14]?
A: > 99 µM (inactive)
